Test results reported in patent publication US20100036088A1, “Selective poly-N-substituted glycine antibiotics” (priority 2008, published 2010).
Converted amounts (≈) assume the structure as drawn. Read-outs that look alike come from different tables or passages of the source. Square brackets hold non-standard residues; d marks the D form. Peptide text beside a SMILES is read from it. Nspe = C[C@H](NCC(=O)O)c1ccccc1; Nphe = O=C(O)CNCc1ccccc1; Nlys = NCCCCNCC(=O)O

Columns and labels:
Format in all cases: cell-based
[1] = tested on: Enterobacter aerogenes ATCC 35029
Description: (§1) Antibacterial assays. MICs were determined according to CLSI M7-A6 protocols in a 96-well microtiter plate. In test wells, 50 μL bacterial inoculum (5×10^5 CFU/ml) in Mueller-Hinton broth (MHB) was added to 50 μL peptoid solution in MHB (prepared by 1:2 serial dilutions). Positive controls contained 50 μL inoculum and 50 μL MHB without peptoid. […] MIC values reported were reproducible between three independent experimental replicates, each consisting of two parallel trials. Broad-spectrum antimicrobial susceptibility testing was performed against BSL2 pathogens by Nova Biologicals, Inc. (Conroe, Tex.).
(§2) Broad-spectrum antibacterial assays. MICs of compounds were determined by microdilution procedure in Mueller-Hinton broth (MHB) in accordance with CLSI M7-A6 protocols in a manner similar to that described for the screen antibacterial assays. Inoculated microtiter plates were incubated at 35° C. for 24 hours prior to the result being recorded. Four ATCC strains that were used as standards are recommended by CLSI: Pseudomonas aeruginosa ATCC 27853, Escherichia coli ATCC 25922, Staphylococcus aureus ATCC 29213 and Enterococcus faecalis ATCC 29212. Other strains from the ATCC collection include Proteus vulgaris ATCC 49132, Proteus mirabilis ATCC 35659, Klebsiella pneumoniae ATCC 33495, Enterobacter aerogenes ATCC 35029 and Serratia marcescens ATCC 13880. S. aureus NRS100 (COL) is a well characterized methicillian-resistant S. aureus (MRSA) strain. The strains S. aureus VAN1 and S. aureus VAN2, vancomycin-resistant MRSA strains that were isolated in Michigan and Pennsylvania, were the first vancomycin-resistant strains clinically isolated. S. aureus NRS119 and S. aureus NRS120 are linezolid-resistant isolates from the Network on Antimicrobial Resistance in S. aureus (NARSA) collection. E. faecalis 99 and E. faecium 106 are vancomycin-resistant enterococcal strains.

Enterococcus faecalis 99 = tested on: Enterococcus faecalis 99
Description: as §1, §2

[2] = tested on: Enterococcus faecalis ATCC 29212
Description: as §1, §2

Enterococcus faecium 106 = tested on: Enterococcus faecium 106
Description: as §1, §2

[3] = tested on: Escherichia coli ATCC 25922
Description: as §1, §2

[4] = tested on: Klebsiella pneumoniae ATCC 33495
Description: as §1, §2

[5] = tested on: Proteus mirabilis ATCC 35659
Description: as §1, §2

[6] = tested on: Proteus vulgaris ATCC 49132
Description: as §1, §2

[7] = tested on: Pseudomonas aeruginosa ATCC 27853
Description: as §1, §2

[8] = tested on: Serratia marcescens ATCC 13880
Description: as §1, §2

[9] = tested on: Staphylococcus aureus ATCC 29213
Description: as §1, §2

[10] = tested on: Staphylococcus aureus NRS100 (COL)
Description: as §1, §2

[11] = tested on: Staphylococcus aureus NRS119
Description: as §1, §2

[12] = tested on: Staphylococcus aureus NRS120
Description: as §1, §2

[13] = tested on: Staphylococcus aureus VAN1
Description: as §1, §2

[14] = tested on: Staphylococcus aureus VAN2
Description: as §1, §2

human erythrocytes = assay: Hemolysis assay
Outline: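 Peptoid serial dilutions in PBS pH 7.4 were combined with an equal volume of 20 vol % washed human red cells (heparinised blood) for 1 h at 37 °C. After dilution and pelleting at 1200 g, released haemoglobin in supernatant was read at A350, scaled between PBS and 0.2 vol % Triton X-100 controls.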

[15] = Table 7A, MRSA, vancomycin-resistant

NCCCCNCC(=O)N(CC(=O)N(CC(=O)N(CCCCN)CC(=O)N(CC(=O)N(CC(=O)N(CCCCN)CC(=O)N(CC(=O)N(CC(=O)N(CCCCN)CC(=O)N(CC(=O)N(CC(N)=O)Cc1ccccc1)Cc1ccccc1)Cc1ccccc1)Cc1ccccc1)Cc1ccccc1)Cc1ccccc1)Cc1ccccc1)Cc1ccccc1 [1achiral, H-(Nlys-Npm-Npm)4-NH2] (H-[Nlys][Nphe][Nphe][Nlys][Nphe][Nphe][Nlys][Nphe][Nphe][Nlys][Nphe][Nphe]-NH2)
MIC Enterobacter aerogenes ATCC 35029 ([1]; ATCC 35029): 75.0 µM (≈ 128 µg/mL)
MIC E. aerogenes ATCC 35029 ([1]; Table 7A): 128 µg/mL (≈ 75 µM)
MIC Enterococcus faecalis 99 (Enterococcus faecalis 99; 99): 37.5 µM (≈ 64 µg/mL)
MIC E. faecalis 99 (Enterococcus faecalis 99; Table 7A): 64 µg/mL (≈ 37.5 µM)
MIC Enterococcus faecalis ATCC 29212 ([2]; ATCC 29212): 9.4 µM (≈ 16 µg/mL)
MIC E. faecalis ATCC 29212 ([2]; Table 7A): 16 µg/mL (≈ 9.37 µM)
MIC Enterococcus faecium 106 (Enterococcus faecium 106; 106): 2.3 µM (≈ 3.93 µg/mL)
MIC E. faecium 106 (Enterococcus faecium 106; Table 7A): 4 µg/mL (≈ 2.34 µM)
MIC Escherichia coli ATCC 25922 ([3]; ATCC 25922): 9.4 µM (≈ 16 µg/mL)
MIC E. coli ATCC 25922 ([3]; Table 7A): 16 µg/mL (≈ 9.37 µM)
MIC Klebsiella pneumoniae ATCC 33495 ([4]; ATCC 33495): 4.7 µM (≈ 8.02 µg/mL)
MIC K. pneumoniae ATCC 33495 ([4]; Table 7A): 8 µg/mL (≈ 4.69 µM)
MIC P. mirabilis ATCC 35659 ([5]; ATCC 35659): >128 µg/mL
MIC Proteus mirabilis ATCC 35659 ([5]; ATCC 35659): >75 µM
MIC Proteus vulgaris ATCC 49132 ([6]; ATCC 49132): 18.7 µM (≈ 31.9 µg/mL)
MIC P. vulgaris ATCC 49132 ([6]; Table 7A): 32 µg/mL (≈ 18.7 µM)
MIC Pseudomonas aeruginosa ATCC 27853 ([7]; ATCC 27853): 9.4 µM (≈ 16 µg/mL)
MIC P. aeruginosa ATCC 27853 ([7]; Table 7A): 16 µg/mL (≈ 9.37 µM)
MIC S. marcescens ATCC 13880 ([8]; ATCC 13880): >128 µg/mL
MIC Serratia marcescens ATCC 13880 ([8]; ATCC 13880): >75 µM
MIC Staphylococcus aureus ATCC 29213 ([9]; ATCC 29213): 4.7 µM (≈ 8.02 µg/mL)
MIC S. aureus ATCC 29213 ([9]; Table 7A): 8 µg/mL (≈ 4.69 µM)
MIC Staphylococcus aureus NRS100 (COL) ([10]; NRS100 (COL)): 4.7 µM (≈ 8.02 µg/mL)
MIC S. aureus NRS100 (COL) ([10]; Table 7A, MRSA): 8 µg/mL (≈ 4.69 µM)
MIC Staphylococcus aureus NRS119 ([11]; NRS119): 9.4 µM (≈ 16 µg/mL)
MIC S. aureus NRS119 ([11]; Table 7A, linezolid-resistant): 16 µg/mL (≈ 9.37 µM)
MIC Staphylococcus aureus NRS120 ([12]; NRS120): 9.4 µM (≈ 16 µg/mL)
MIC S. aureus NRS120 ([12]; Table 7A, linezolid-resistant): 16 µg/mL (≈ 9.37 µM)
MIC S. aureus VAN1 [13, 15]: 8 µg/mL (≈ 4.69 µM)
MIC Staphylococcus aureus VAN1 ([13]; VAN1): 4.7 µM (≈ 8.02 µg/mL)
MIC S. aureus VAN2 [14, 15]: 8 µg/mL (≈ 4.69 µM)
MIC Staphylococcus aureus VAN2 ([14]; VAN2): 4.7 µM (≈ 8.02 µg/mL)

C[C@@H](c1ccccc1)N(CC(N)=O)C(=O)CN(C(=O)CN(CCCCN)C(=O)CN(C(=O)CN(C(=O)CN(CCCCN)C(=O)CN(C(=O)CN(C(=O)CN(CCCCN)C(=O)CN(C(=O)CN(C(=O)CNCCCCN)[C@@H](C)c1ccccc1)[C@@H](C)c1ccccc1)[C@@H](C)c1ccccc1)[C@@H](C)c1ccccc1)[C@@H](C)c1ccccc1)[C@@H](C)c1ccccc1)[C@@H](C)c1ccccc1 [compound 1, H-(NLys-Nspe-Nspe)4-NH2] (H-[Nlys][Nspe][Nspe][Nlys][Nspe][Nspe][Nlys][Nspe][Nspe][Nlys][Nspe][Nspe]-NH2)
HD10 (10% hemolytic dose) (human erythrocytes; Table 1, human erythrocytes): 21 µM
HD50 (50% hemolytic dose) (human erythrocytes; Table 1, human erythrocytes): 100 µM
HD10 (human erythrocytes; Table 2): 18 µM
HD50 (human erythrocytes; Table 2): 72 µM
HD10 (human erythrocytes; Table 3): 21 µM
HD50 (human erythrocytes; Table 3): 100 µM
HD10 (human erythrocytes; Table 6): 21 µM
HD50 (human erythrocytes; Table 6): 100 µM
MIC Enterobacter aerogenes ATCC 35029 ([1]; Table 4, Gram −): 8.8 µM (≈ 16 µg/mL)
MIC Enterococcus faecalis 99 (Enterococcus faecalis 99; Table 4, vancomycin resistant): 4.4 µM (≈ 8.01 µg/mL)
MIC Enterococcus faecalis ATCC 29212 ([2]; Table 4, Gram +): 2.2 µM
MIC Enterococcus faecium 106 (Enterococcus faecium 106; Table 4, vancomycin resistant): 2.2 µM (≈ 4 µg/mL)
MIC Escherichia coli ATCC 25922 ([3]; Table 4, Gram −): 2.2 µM (≈ 4 µg/mL)
MIC Klebsiella pneumoniae ATCC 33495 ([4]; Table 4, Gram −): 8.8 µM (≈ 16 µg/mL)
MIC Proteus mirabilis ATCC 35659 ([5]; Table 4, Gram −): >70.4 µM
MIC P. mirabilis ATCC 35659 ([5]; Table 7A): >128 µg/mL
MIC Proteus vulgaris ATCC 49132 ([6]; Table 4, Gram −): 17.6 µM (≈ 32 µg/mL)
MIC Pseudomonas aeruginosa ATCC 27853 ([7]; Table 4, Gram −): 4.4 µM (≈ 8.01 µg/mL)
MIC Serratia marcescens ATCC 13880 ([8]; Table 4, Gram −): 70.4 µM (≈ 128 µg/mL)
MIC Staphylococcus aureus ATCC 29213 ([9]; Table 4, Gram +): 2.2 µM
MIC Staphylococcus aureus NRS100 (COL) ([10]; Table 4, Gram +): 2.2 µM
MIC Staphylococcus aureus NRS119 ([11]; Table 4, Gram +): 2.2 µM
MIC Staphylococcus aureus NRS120 ([12]; Table 4, Gram +): 4.4 µM
MIC Staphylococcus aureus VAN1 ([13]; Table 4, vancomycin resistant): 2.2 µM (≈ 4 µg/mL)
MIC Staphylococcus aureus VAN2 ([14]; Table 4, vancomycin resistant): 2.2 µM (≈ 4 µg/mL)
